Experimental data published in ChEMBL document CHEMBL3714736, “Heterocyclic compounds for the inhibition of PASK” (2015).
The source made the active and inactive calls. The rule behind the calls is not given here.

Key:
[1] = system: Mus musculus; experiment: Reduction in body weight in high-fat diet fed C57B16 mouse with fast/re-feed at 30 to 100 mg/kg, po daily for 3 days; format: functional, organism-based
[2] = system: Mus musculus; experiment: Reduction in liver weight in high-fat diet fed C57B16 mouse with fast/re-feed at 30 to 100 mg/kg, po daily for 3 days; format: functional
[3] = system: Mus musculus; experiment: Reduction in liver weight in high-fat diet fed C57B16 mouse with fast/re-feed at 30 mg/kg, po daily for 3 days; format: functional
[4] = system: Mus musculus; experiment: Reduction in liver weight in high-fat diet fed C57B16 mouse with fast/re-feed at 100 mg/kg, po daily for 3 days; format: functional; details: for inhibition in vivo at 100 mg/kg: 72 h
[5] = system: Mus musculus; experiment: Reduction in plasma glucose level in high-fat diet fed C57B16 mouse with fast/re-feed at 30 to 100 mg/kg, po daily for 3 days by colorimetric assay; format: functional, organism-based
[6] = system: Mus musculus; experiment: Reduction in plasma glucose level in high-fat diet fed C57B16 mouse with fast/re-feed at 100 mg/kg, po daily for 3 days by colorimetric assay; format: functional; details: 72 h
[7] = system: Mus musculus; experiment: Reduction in plasma glucose level in fasted C57B16 mouse at 30 to 100 mg/kg, po daily for 3 days by colorimetric assay; format: functional, organism-based
[8] = system: Mus musculus; experiment: Reduction in plasma insulin level in high-fat diet fed C57B16 mouse with fast/re-feed at 30 to 100 mg/kg, po daily for 3 days by colorimetric assay; format: functional, organism-based
[9] = system: Mus musculus; experiment: Reduction in plasma insulin level in fasted fed C57B16 mouse at 30 mg/kg, po daily for 3 days by colorimetric assay; format: functional; details: 72 h
[10] = system: Mus musculus; experiment: Reduction in plasma insulin level in fasted fed C57B16 mouse at 100 mg/kg, po daily for 3 days by colorimetric assay; format: functional; details: 72 h
[11] = system: Rattus norvegicus; experiment: Reduction in body weight in high fructose diet fed Sprague-Dawley rat with fast/re-feed at 30 and 100 mg/kg, po dosed once daily for 7 days; format: functional, organism-based
[12] = system: Rattus norvegicus; experiment: Reduction in liver weight in high fructose diet fed Sprague-Dawley rat with fast/re-feed at 30 and 100 mg/kg, po dosed once daily for 7 days; format: functional, organism-based
[13] = system: Rattus norvegicus; experiment: Reduction in liver weight in high fructose diet fed Sprague-Dawley rat with fast/re-feed at 100 mg/kg, po dosed once daily for 7 days; format: functional; details: 168 h
[14] = system: Rattus norvegicus; experiment: Reduction in plasma glucose level in high fructose diet fed Sprague-Dawley rat with fast/re-feed at 30 and 100 mg/kg, po dosed once daily for 7 days by colorimetric assay; format: functional, organism-based
[15] = system: Rattus norvegicus; experiment: Reduction in plasma triglyceride level in high fructose diet fed Sprague-Dawley rat with fast/re-feed at 30 and 100 mg/kg, po dosed once daily for 7 days by colorimetric assay; format: functional, organism-based
[16] = system: Rattus norvegicus; experiment: Reduction in plasma cholesterol level in high fructose diet fed Sprague-Dawley rat with fast/re-feed at 30 and 100 mg/kg, po dosed once daily for 7 days by colorimetric assay; format: functional, organism-based
[17] = target: T1, PAS domain-containing serine/threonine-protein kinase (Homo sapiens, UniProt Q96RG2); experiment: Inhibition of human recombinant PASK using Ulight-peptide substrate incubated for 2 hrs by TR-FRET assay
[18] = target: T1, PAS domain-containing serine/threonine-protein kinase; experiment: Inhibition of N-terminal GST-tagged human recombinant PASK kinase domain (879 to 1323 residues) expressed in insect cells using MBP protein substrate incubated for 120 mins in presence of [33P]ATP by scintillation counting based radiochemical assay
[19] = system: Rattus norvegicus; experiment: Reduction in body weight in high fructose diet fed Sprague-Dawley rat with fast/re-feed at 30 mg/kg, po dosed once daily for 7 days; format: functional, organism-based
[20] = system: Rattus norvegicus; experiment: Increase in liver weight in high fructose diet fed Sprague-Dawley rat with fast/re-feed at 30 mg/kg, po dosed once daily for 7 days; format: ADME, organism-based; details: in vivo, 168 h
[21] = system: Rattus norvegicus; experiment: Reduction in plasma glucose level in high fructose diet fed Sprague-Dawley rat with fast/re-feed at 30 mg/kg, po dosed once daily for 7 days by colorimetric assay; format: functional

T1 sequence (Q96RG2 whole entry, the tested form may be a part): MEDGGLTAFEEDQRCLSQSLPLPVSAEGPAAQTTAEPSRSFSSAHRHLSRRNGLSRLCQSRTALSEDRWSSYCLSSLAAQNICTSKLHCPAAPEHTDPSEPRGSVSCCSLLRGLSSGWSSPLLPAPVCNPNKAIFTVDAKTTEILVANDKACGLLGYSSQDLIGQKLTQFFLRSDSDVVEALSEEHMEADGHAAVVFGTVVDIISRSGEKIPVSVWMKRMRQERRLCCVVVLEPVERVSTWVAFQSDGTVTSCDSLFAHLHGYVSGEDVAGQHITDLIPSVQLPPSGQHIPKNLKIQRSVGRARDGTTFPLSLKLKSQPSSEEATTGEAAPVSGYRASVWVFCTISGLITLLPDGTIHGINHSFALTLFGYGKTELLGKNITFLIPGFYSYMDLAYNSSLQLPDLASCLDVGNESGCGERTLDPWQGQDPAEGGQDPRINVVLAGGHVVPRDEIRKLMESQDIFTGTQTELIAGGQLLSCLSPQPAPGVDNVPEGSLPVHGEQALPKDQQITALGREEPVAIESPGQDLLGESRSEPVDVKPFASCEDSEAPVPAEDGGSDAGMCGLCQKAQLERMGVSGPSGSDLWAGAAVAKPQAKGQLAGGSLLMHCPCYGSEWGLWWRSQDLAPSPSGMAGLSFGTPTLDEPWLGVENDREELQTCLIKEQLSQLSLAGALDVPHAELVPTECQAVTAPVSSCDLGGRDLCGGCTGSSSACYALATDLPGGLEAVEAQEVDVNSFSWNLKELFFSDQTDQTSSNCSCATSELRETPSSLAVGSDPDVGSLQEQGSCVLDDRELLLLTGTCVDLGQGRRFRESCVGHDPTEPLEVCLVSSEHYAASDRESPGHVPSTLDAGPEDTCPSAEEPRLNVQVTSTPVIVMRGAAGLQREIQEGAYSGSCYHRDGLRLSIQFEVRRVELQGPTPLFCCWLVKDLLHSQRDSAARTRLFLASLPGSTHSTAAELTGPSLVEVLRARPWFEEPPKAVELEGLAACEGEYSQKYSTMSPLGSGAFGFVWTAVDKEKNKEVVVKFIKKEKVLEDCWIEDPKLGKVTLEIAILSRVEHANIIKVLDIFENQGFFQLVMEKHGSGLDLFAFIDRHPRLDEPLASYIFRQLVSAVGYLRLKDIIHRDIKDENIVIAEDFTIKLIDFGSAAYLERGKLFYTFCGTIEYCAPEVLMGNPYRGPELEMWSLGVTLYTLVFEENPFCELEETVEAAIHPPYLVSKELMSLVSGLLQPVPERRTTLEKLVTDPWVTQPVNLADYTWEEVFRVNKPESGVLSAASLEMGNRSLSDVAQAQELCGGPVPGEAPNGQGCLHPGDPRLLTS

SMILES: CC(C)N(C)c1nc2cc(C(=O)O)ccc2nc1-c1ccc(F)cc1
- inhibition [1]: Dose-dependent effect
- inhibition [2]: Dose-dependent effect
- inhibition (INH) [2]: 7%
- inhibition [3]: Dose-dependent effect
- inhibition in vivo at 30 mg/kg ([3]; 72 h): 7%
- inhibition [4]: Dose-dependent effect
- inhibition in vivo at 100 mg/kg [4]: 7%
- inhibition [5]: Dose-dependent effect
- inhibition in vivo at 100 mg/kg [6]: ≤ 27%
- inhibition [7]: Dose-dependent effect
- inhibition [8]: Dose-dependent effect
- inhibition in vivo at 30 mg/kg [9]: ≤ 26%
- inhibition in vivo at 100 mg/kg [10]: ≤ 26%
- inhibition [11]: Active
- inhibition [12]: Active
- inhibition in vivo at 100 mg/kg [13]: 4%
- inhibition [14]: Dose-dependent effect
- inhibition [15]: Dose-dependent effect
- inhibition [16]: Active

SMILES: O=C(O)c1ccc2nc(-c3ccc4c(c3)OCO4)c(N3CCCc4ccccc43)nc2c1
- IC50 [17]: ≤ 10 µM

SMILES: CN(C1CCN(c2nc3cc(C(=O)O)ccc3nc2-c2ccccc2)CC1)S(C)(=O)=O
- IC50 [18]: ≤ 10 µM

SMILES: CC(C)N(C)c1nc2cc(C(=O)O)ccc2nc1-c1ccc2nccn2c1
- IC50 [17]: ≤ 10 µM

SMILES: CC(C)OC(=O)C1=CN(C(=O)c2ccc(F)c(F)c2)CC(C)(C)c2c1[nH]c1ccccc21 [TUROFEXORATE ISOPROPYL]
- inhibition in vivo at 100 mg/kg [4]: 7%
- Activity [19]: inactive
- Activity [20]: 15%
- inhibition [21]: inactive
